# Experimental data reported in ChEMBL document CHEMBL1133307, “Synthesis of 5-substituted analogues of huperzine A” (Bioorg Med Chem Lett, 2000).
# Tests used:
# [1] = biological target: Acetylcholinesterase (Homo sapiens) (UniProt P22303); assay: Percent inhibition against acetylcholinesterase (ACHE) at a concentration of 88 uM
# [2] = biological target: Acetylcholinesterase (Homo sapiens) (UniProt P22303); assay: Percent inhibition against acetylcholinesterase (ACHE) at a concentration of 35 uM
# [3] = biological target: Acetylcholinesterase (Homo sapiens) (UniProt P22303); assay: Percent inhibition against acetylcholinesterase (ACHE) at a concentration of 47 uM
# Sequence of Acetylcholinesterase (Homo sapiens) (P22303 whole entry): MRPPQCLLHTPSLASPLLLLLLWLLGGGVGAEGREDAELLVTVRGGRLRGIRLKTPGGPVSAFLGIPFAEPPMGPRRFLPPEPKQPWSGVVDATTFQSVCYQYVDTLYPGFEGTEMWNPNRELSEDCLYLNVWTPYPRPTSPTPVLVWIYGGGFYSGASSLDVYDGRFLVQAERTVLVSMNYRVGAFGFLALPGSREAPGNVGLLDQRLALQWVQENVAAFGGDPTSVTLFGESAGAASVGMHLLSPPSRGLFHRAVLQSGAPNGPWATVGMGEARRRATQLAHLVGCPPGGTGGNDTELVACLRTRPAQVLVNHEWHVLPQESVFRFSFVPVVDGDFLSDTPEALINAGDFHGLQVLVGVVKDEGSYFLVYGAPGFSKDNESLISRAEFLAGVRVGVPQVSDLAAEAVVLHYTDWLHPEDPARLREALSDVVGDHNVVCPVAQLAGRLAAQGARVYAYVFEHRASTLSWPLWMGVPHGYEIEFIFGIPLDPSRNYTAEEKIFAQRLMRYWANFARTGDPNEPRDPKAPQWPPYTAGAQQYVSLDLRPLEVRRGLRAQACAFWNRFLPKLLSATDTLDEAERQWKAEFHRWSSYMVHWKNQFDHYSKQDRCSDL
compound,measurement,setting,value
C/C=C1\C2C=C(C)CC1(OC(C)=O)c1ccc(O)nc1C2 (stereo not drawn),inhibition,[1],6.36%
C/C=C1\C2C=C(C)CC1(O)c1ccc(O)nc1C2 (stereo not drawn),inhibition,[2],50%
C/C=C1\C2C=C(C)CC1(F)c1ccc(O)nc1C2 (stereo not drawn),inhibition,[3],50%
